{
  "source": "patent US20170305857A1",
  "about": "“N-ACYLPIPERIDINE ETHER TROPOMYOSIN-RELATED KINASE INHIBITORS” (Pfizer Limited, priority 2014, published 2017)",
  "note": "pIC50: −log10 of the molar value.",
  "data": [
    {"molecular_target": "T1, recombinant His-tagged cytoplasmic domains of TRKA receptor (NTRK1, PV3144, aa 441-796) (Homo sapiens, UniProt P04629)", "T1 construct": "aa 441-796; His; purchased Invitrogen PV3144", "T1 sequence (P04629 441-796)": "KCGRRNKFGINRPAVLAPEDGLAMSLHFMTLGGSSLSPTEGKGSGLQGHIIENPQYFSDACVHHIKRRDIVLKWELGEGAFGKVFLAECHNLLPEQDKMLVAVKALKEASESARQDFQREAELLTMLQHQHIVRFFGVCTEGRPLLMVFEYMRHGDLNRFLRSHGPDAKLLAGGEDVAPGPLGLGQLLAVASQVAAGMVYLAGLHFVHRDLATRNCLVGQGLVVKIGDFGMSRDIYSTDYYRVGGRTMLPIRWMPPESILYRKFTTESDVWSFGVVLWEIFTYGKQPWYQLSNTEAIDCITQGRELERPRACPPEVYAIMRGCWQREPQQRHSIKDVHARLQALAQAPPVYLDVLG", "experiment": "Isolated TRK enzyme assay (HTRF KinEASE-TK, PV3144 TrkA enzyme assay)", "assay_type": "biochemical", "conditions": "4 nM enzyme, 40 uM ATP, 35 min, arithmetic mean where more than one reading", "how_it_was_run": "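Enzyme and ATP were preincubated with compound for 20 min at room temperature in buffer with 10 mM MgCl and 2 mM DTT. TK-substrate-Biotin was then added (1 uM final) and the reaction run for an enzyme-specific optimized time. Phosphorylation was read by HTRF, and IC50 values came from sigmoid fits of percent inhibition normalized to plate controls, averaged over replicate readings.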", "values": [
      {"smiles": "Cn1cc(-c2ccc(OC3CCN(C(=O)Cc4ccc(OC(F)(F)F)cc4)CC3)c(C(N)=O)c2)c(C#N)n1", "note": "[Example 149, 5-(3-cyano-1-methyl-1H-pyrazol-4-yl)-2-[(1-{[4-(trifluoromethoxy)phenyl]acetyl}piperidin-4-yl)oxy]benzamide]", "pIC50": 7.86},
      {"smiles": "NC(=O)c1cc(-c2cccnc2)ccc1OC1CCN(C(=O)Cc2ccc(OC(F)(F)F)cc2)CC1", "note": "[Example 150, 5-(pyridin-3-yl)-2-[(1-{[4-(trifluoromethoxy)phenyl]acetyl}piperidin-4-yl)oxy]benzamide]", "pIC50": 7.96},
      {"smiles": "NC(=O)c1cc(-c2ccc(CO)cc2)cnc1OC1CCN(C(=O)Cc2ccc(OC(F)(F)F)cc2)CC1", "note": "[Example 151, 5-[4-(hydroxymethyl)phenyl]-2-[(1-{[4-(trifluoromethoxy)phenyl]acetyl}piperidin-4-yl)oxy]pyridine-3-carboxamide]", "pIC50": 7.92},
      {"smiles": "C[C@H](O)c1ccc(-c2cnc(OC3CCN(C(=O)Cc4ccc(OC(F)(F)F)cc4)CC3)c(C(N)=O)c2)cc1", "note": "[Example 152, 5-{4-[(1S)-1-hydroxyethyl]phenyl}-2-[(1-{[4-(trifluoromethoxy)phenyl]acetyl}piperidin-4-yl)oxy]pyridine-3-carboxamide]", "pIC50": 7.90},
      {"smiles": "CCc1ccc(CC(=O)N2CCC(Oc3ccc(-c4cnn(C)c4)cc3C(N)=O)CC2)cc1", "note": "[Example 153, 2-({1-[(4-ethylphenyl)acetyl]piperidin-4-yl}oxy)-5-(1-methyl-1H-pyrazol-4-yl)benzamide]", "pIC50": 7.71},
      {"smiles": "Cn1ncc(-c2cnc(O[C@@H]3CCN(C(=O)Cc4ccc(OC(F)(F)F)cc4)C[C@@H]3F)c(C(N)=O)c2)n1", "note": "[Example 154, 2-{[(3S,4R)-3-fluoro-1-{[4-(trifluoromethoxy)phenyl]acetyl}piperidin-4-yl]oxy}-5-(2-methyl-2H-1,2,3-triazol-4-yl)pyridine-3-carboxamide]", "pIC50": 8.53},
      {"smiles": "Cn1cc(-c2cnc(O[C@@H]3CCN(C(=O)Cc4ccc(OC(F)(F)F)cc4)C[C@@H]3F)c(C(N)=O)c2)nn1", "note": "[Example 155, 2-[((3S,4R)-3-fluoro-1-{[4-(trifluoromethoxy)phenyl]acetyl}piperidin-4-yl)oxy]-5-(1-methyl-1H-1,2,3-triazol-4-yl)pyridine-3-carboxamide]", "pIC50": 8.61},
      {"smiles": "Cn1cc(-c2cc(C(N)=O)c(O[C@H]3CCN(C(=O)Cc4ccc(OC(F)(F)F)cc4)C[C@H]3F)nn2)cn1", "note": "[Example 156, 3-{[(3R,4S)-3-fluoro-1-{[4-(trifluoromethoxy)phenyl]acetyl}piperidin-4-yl]oxy}-6-(1-methyl-1H-pyrazol-4-yl)pyridazine-4-carboxamide]", "pIC50": 8.38},
      {"smiles": "Cn1cc(-c2cc(C(N)=O)c(O[C@@H]3CCN(C(=O)Cc4ccc(OC(F)(F)F)cc4)C[C@@H]3F)nn2)cn1", "note": "[Example 157, 3-{[(3S,4R)-3-fluoro-1-{[4-(trifluoromethoxy)phenyl]acetyl}piperidin-4-yl]oxy}-6-(1-methyl-1H-pyrazol-4-yl)pyridazine-4-carboxamide]", "pIC50": 8.14},
      {"smiles": "Cn1cnc(-c2ccc(O[C@H]3[C@@H]4CO[C@H]3CN(C(=O)Cc3ccc(OC(F)(F)F)cc3)C4)c(C(N)=O)c2)c1", "note": "[Example 158, 5-(1-methyl-1H-imidazol-4-yl)-2-{[(1S,5S,8S)-3-{[4-(trifluoromethoxy)phenyl]acetyl}-6-oxa-3-azabicyclo[3.2.1]oct-8-yl]oxy}benzamide]", "pIC50": 7.74},
      {"smiles": "Cn1cnc(-c2ccc(OC3CCN(C(=O)Cc4ccc(OC(F)(F)F)cc4)C4CC34)c(C(N)=O)c2)c1", "note": "(stereo not drawn) [Example 159, 5-(1-methyl-1H-imidazol-4-yl)-2-[(2-{[4-(trifluoromethoxy)phenyl]acetyl}-2-azabicyclo[4.1.0]hept-5-yl)oxy]benzamide]", "pIC50": 7.75},
      {"smiles": "NC(=O)c1cc(-n2cc(CO)cn2)cnc1O[C@@H]1CCN(C(=O)Cc2ccc(OC(F)(F)F)cc2)C[C@@H]1F", "note": "[Example 160, 2-{[(3S,4R)-3-fluoro-1-{[4-(trifluoromethoxy)phenyl]acetyl}piperidin-4-yl]oxy}-5-[4-(hydroxymethyl)-1H-pyrazol-1-yl]pyridine-3-carboxamide]", "pIC50": 8.07},
      {"smiles": "Cc1cn(-c2cnc(O[C@@H]3CCN(C(=O)Cc4ccc(OC(F)(F)F)cc4)C[C@@H]3F)c(C(N)=O)c2)cn1", "note": "[Example 162, 2-(((3S,4R)-3-fluoro-1-(2-(4-(trifluoromethoxy)phenyl)acetyl)piperidin-4-yl)oxy)-5-(4-methyl-1H-imidazol-1-yl)nicotinamide]", "pIC50": 7.91},
      {"smiles": "CC(C)(O)Cn1cc(-c2cnc(O[C@H]3CCN(C(=O)Cc4ccc(OC5CC5)cn4)C[C@@H]3F)c(C(N)=O)c2)cn1", "note": "[Example 163, 2-{[(3S,4S)-1-{[5-(cyclopropyloxy)pyridin-2-yl]acetyl}-3-fluoropiperidin-4-yl]oxy}-5-[1-(2-hydroxy-2-methylpropyl)-1H-pyrazol-4-yl]pyridine-3-carboxamide]", "pIC50": 7.78},
      {"smiles": "CS(=O)(=O)Cn1cc(-c2cc(C(N)=O)c(O[C@H]3CCN(C(=O)Cc4ccc(OC5CC5)cc4)C[C@@H]3F)cn2)cn1", "note": "[Example 165, 5-{[(3S,4S)-1-{[4-(cyclopropyloxy)phenyl]acetyl}-3-fluoropiperidin-4-yl]oxy}-2-{1-[(methylsulfonyl)methyl]-1H-pyrazol-4-yl}pyridine-4-carboxamide]", "pIC50": 7.80},
      {"smiles": "CS(=O)(=O)Cn1cc(-c2cc(C(N)=O)c(O[C@H]3CCN(C(=O)Cc4ccc(OC(F)(F)F)cc4)C[C@@H]3F)cn2)cn1", "note": "[Example 166, 5-{[(3S,4S)-3-fluoro-1-{[4-(trifluoromethoxy)phenyl]acetyl}piperidin-4-yl]oxy}-2-{1-[(methylsulfonyl)methyl]-1H-pyrazol-4-yl}pyridine-4-carboxamide]", "pIC50": 7.89},
      {"smiles": "Cc1n[nH]c(C)c1-c1cnc(O[C@H]2CCN(C(=O)Cc3ccc(OC4CC4)cn3)C[C@@H]2F)c(C(N)=O)c1", "note": "[Example 167, 2-{[(3S,4S)-1-{[5-(cyclopropyloxy)pyridin-2-yl]acetyl}-3-fluoropiperidin-4-yl]oxy}-5-(3,5-dimethyl-1H-pyrazol-4-yl)pyridine-3-carboxamide]", "pIC50": 7.71},
      {"smiles": "Cn1cnc(-c2ccc(OC3CCN(C(=O)Cc4ccc(OC(C)(F)F)cn4)CC3)c(C(N)=O)c2)c1", "note": "[Example 168, 2-[(1-{[5-(1,1-difluoroethoxy)pyridin-2-yl]acetyl}piperidin-4-yl)oxy]-5-(1-methyl-1H-imidazol-4-yl)benzamide]", "pIC50": 7.76},
      {"smiles": "NC(=O)c1cc(-c2cn[nH]c2)ncc1OC1CCN(C(=O)Cc2ccc(OC(F)(F)F)c(F)c2)CC1", "note": "[Example 169, 5-[(1-{[3-fluoro-4-(trifluoromethoxy)phenyl]acetyl}piperidin-4-yl)oxy]-2-(1H-pyrazol-4-yl)pyridine-4-carboxamide]", "pIC50": 7.93},
      {"smiles": "Cc1cc(OC2CCN(C(=O)Cc3ccc(OC(F)(F)F)cc3)CC2)c(C(N)=O)cc1-c1cn(C)cn1", "note": "[Example 170, 4-methyl-5-(1-methyl-1H-imidazol-4-yl)-2-[(1-{[4-(trifluoromethoxy)phenyl]acetyl}piperidin-4-yl)oxy]benzamide]", "pIC50": 7.75},
      {"smiles": "Cn1cc(-c2ccc(OC3CCN(C(=O)Cc4ccc(OC5CC5)cn4)CC3)c(C(N)=O)c2)cn1", "note": "[Example 173, 2-[(1-{[5-(cyclopropyloxy)pyridin-2-yl]acetyl}piperidin-4-yl)oxy]-5-(1-methyl-1H-pyrazol-4-yl)benzamide]", "pIC50": 7.94}
    ]}
  ]
}
